Structures can show the parent of a compound that is named as a salt.
Target: T1, HCV polymerase (Hepatitis C virus genotype 1b, UniProt P26663)
T1 construct: a region encoding NS5B (591 amino acids; J Virol 1991 Mar, 65(3), 1105-13) was amplified by PCR; 6 His (N); made in house; host or cells: Escherichia coli
Experiment: biochemical
Conditions: read-out: HCV polymerase inhibitory activity IC50

T1 sequence (P26663 2420-3010): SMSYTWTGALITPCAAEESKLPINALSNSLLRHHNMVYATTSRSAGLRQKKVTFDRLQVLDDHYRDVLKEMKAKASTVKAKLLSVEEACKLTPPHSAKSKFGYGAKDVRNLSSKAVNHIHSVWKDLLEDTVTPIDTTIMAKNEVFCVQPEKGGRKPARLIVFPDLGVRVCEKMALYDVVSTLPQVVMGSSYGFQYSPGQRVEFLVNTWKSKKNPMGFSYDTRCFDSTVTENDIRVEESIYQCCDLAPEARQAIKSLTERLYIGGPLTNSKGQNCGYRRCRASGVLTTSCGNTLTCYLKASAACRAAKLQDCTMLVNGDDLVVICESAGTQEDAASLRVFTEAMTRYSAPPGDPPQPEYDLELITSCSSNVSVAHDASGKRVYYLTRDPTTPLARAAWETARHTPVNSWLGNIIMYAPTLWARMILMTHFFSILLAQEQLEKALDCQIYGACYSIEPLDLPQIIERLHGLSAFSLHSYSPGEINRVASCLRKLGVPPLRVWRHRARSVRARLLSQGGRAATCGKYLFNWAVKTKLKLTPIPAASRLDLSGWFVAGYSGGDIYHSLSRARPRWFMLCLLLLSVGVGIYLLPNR

Compound	IC50
CC(C)NC(=O)c1ccc(-c2ccc(Cl)cc2)c(COc2ccc(-c3nc4cc(-c5noc(=O)[nH]5)ccc4n3C3CCCCC3)c(F)c2)c1 [Example 436, 2-{4-[2-(4-chlorophenyl)-5-(isopropylcarbamoyl)benzyloxy]-2-fluorophenyl}-1-cyclohexyl-5-(2,5-dihydro-5-oxo-4H-1,2,4-oxadiazol-3-yl)benzimidazole hydrochloride]	0.026 µM
O=C(O)c1ccc2c(c1)nc(-c1cc(C(c3cccc(F)c3)c3cccc(F)c3)c(O)cc1F)n2C1CCCCC1 [Example 440, 2-{5-[bis(3-fluorophenyl)methyl]-2-fluoro-4-hydroxyphenyl}-1-cyclohexylbenzimidazole-5-carboxylic acid]	0.07 µM
CN(C)C(=O)c1cccc(C(Oc2ccc(-c3nc4cc(C(=O)O)ccc4n3C3CCCCC3)c(F)c2)c2ccc(F)cc2)c1 (centres unmarked) [Example 442, 2-{4-[(3-dimethylcarbamoylphenyl)(4-fluorophenyl)methoxy]-2-fluorophenyl}-1-cyclohexylbenzimidazole-5-carboxylic acid hydrochloride]	0.024 µM
O=C(O)c1ccc2c(c1)nc(-c1ccc(OC(c3ccc(F)cc3)c3cccc(C(=O)N4CCC(O)CC4)c3)cc1F)n2C1CCCCC1 (centres unmarked) [Example 443, 2-{4-[{3-(4-hydroxypiperidyl-1-ylcarbonyl)phenyl}(4-fluorophenyl)methoxy]-2-fluorophenyl}-1-cyclohexylbenzimidazole-5-carboxylic acid hydrochloride]	0.03 µM
O=C(O[C@@H]1O[C@H](C(=O)O)[C@@H](O)[C@H](O)[C@H]1O)c1ccc2c(c1)nc(-c1ccc(OC(c3cccc(F)c3)c3cccc(F)c3)cc1F)n2C1CCCCC1 [Example 445, {[2-{4-[bis(3-fluorophenyl)methoxy]-2-fluorophenyl}-1-cyclohexylbenzimidazol-5-yl]carbonyl}-β-D-glucuronic acid]	0.33 µM
O=C(O)c1ccc2c(c1)nc(-c1ccc(OCc3cc(N4CCCS4(=O)=O)ccc3-c3ccc(Cl)cc3)cc1F)n2C1CCCCC1 [Example 446, 2-{4-[2-(4-chlorophenyl)-5-(1,1-dioxoisothiazolidin-2-yl)benzyloxy]-2-fluorophenyl}-1-cyclohexylbenzimidazole-5-carboxylic acid hydrochloride]	0.016 µM
CC(C)NC(=O)c1ccc(-c2ccc(Cl)cc2)c(COc2ccc(-c3nc4cc(S(N)(=O)=O)ccc4n3C3CCCCC3)c(F)c2)c1 [Example 447, 3-{[4-(5-aminosulfonyl-1-cyclohexylbenzimidazol-2-yl)-3-fluorophenoxy]methyl}-4-(4-chlorophenyl)-N-isopropylbenzamide]	0.12 µM
CC(C)NC(=O)c1cccc(-c2ccc(Cl)cc2)c1COc1ccc(-c2nc3cc(C(=O)O)ccc3n2C2CCCCC2)c(F)c1 [Example 448, 2-[4-{2-(4-chlorophenyl)-6-(isopropylaminocarbonyl)benzyloxy}-2-fluorophenyl]-1-cyclohexylbenzimidazole-5-carboxylic acid hydrochloride]	0.2 µM
O=C(O)c1ccc2c(c1)nc(-c1ccc(OCc3cc(N4CCCS4(=O)=O)c(F)cc3-c3ccc(Cl)cc3)cc1F)n2C1CCCCC1 [Example 449, 2-[4-{2-(4-chlorophenyl)-4-fluoro-5-(1,1-dioxoisothiazolidin-2-yl)benzyloxy}-2-fluorophenyl]-1-cyclohexylbenzimidazole-5-carboxylic acid hydrochloride]	0.025 µM
COc1c(C(=O)O)ccc2c1nc(-c1ccc(OCc3cc(C(=O)NC(C)C)ccc3-c3ccc(Cl)cc3)cc1F)n2C1CCCCC1 [Example 450, 2-[4-{2-(4-chlorophenyl)-5-(isopropylaminocarbonyl)benzyloxy}-2-fluorophenyl]-1-cyclohexyl-4-methoxybenzimidazole-5-carboxylic acid hydrochloride]	0.04 µM
CC(C)C(=O)N(C)c1ccc(-c2ccc(Cl)cc2)c(COc2ccc(-c3nc4cc(C(=O)O)ccc4n3C3CCCCC3)c(F)c2)c1 [Example 451, 2-[4-{2-(4-chlorophenyl)-5-(N-isopropylcarbonyl-N-methylamino)benzyloxy}-2-fluorophenyl]-1-cyclohexylbenzimidazole-5-carboxylic acid hydrochloride]	0.031 µM
CC(C)C(=O)Nc1ccc(-c2ccc(Cl)cc2)c(COc2ccc(-c3nc4cc(C(=O)O)ccc4n3C3CCCCC3)c(F)c2)c1 [Example 452, 2-[4-{2-(4-chlorophenyl)-5-(isopropylcarbonylamino)benzyloxy}-2-fluorophenyl]-1-cyclohexylbenzimidazole-5-carboxylic acid hydrochloride]	0.028 µM
O=C(O)c1ccc2c(c1)nc(-c1ccc(OCc3cc(N4CCCC4=O)c(F)cc3-c3ccc(Cl)cc3)cc1F)n2C1CCCCC1 [Example 454, 2-[4-{2-(4-chlorophenyl)-4-fluoro-5-(2-oxopyrrolidin-1-yl)benzyloxy}-2-fluorophenyl]-1-cyclohexylbenzimidazole-5-carboxylic acid hydrochloride]	0.013 µM
CS(=O)(=O)Nc1ccc(-c2ccc(Cl)cc2)c(COc2ccc(-c3nc4cc(C(=O)O)ccc4n3C3CCCCC3)c(F)c2)c1 [Example 455, 2-[4-{2-(4-chlorophenyl)-5-(methylsulfonylamino)benzyloxy}-2-fluorophenyl]-1-cyclohexylbenzimidazole-5-carboxylic acid hydrochloride]	0.015 µM
CN(c1ccc(-c2ccc(Cl)cc2)c(COc2ccc(-c3nc4cc(C(=O)O)ccc4n3C3CCCCC3)c(F)c2)c1)S(C)(=O)=O [Example 456, 2-[4-{2-(4-chlorophenyl)-5-[N-methyl-N-(methylsulfonyl)amino]benzyloxy}-2-fluorophenyl]-1-cyclohexylbenzimidazole-5-carboxylic acid hydrochloride]	0.017 µM
O=C(O)c1ccc2c(c1)nc(-c1ccc(OCc3nc(N4CCCC4=O)ccc3-c3ccc(Cl)cc3)cc1F)n2C1CCCCC1 [Example 457, 2-[4-{[3-(4-chlorophenyl)-6-(2-oxopyrrolidin-1-yl)pyridin-2-yl]methyloxy}-2-fluorophenyl]-1-cyclohexylbenzimidazole-5-carboxylic acid hydrochloride]	0.015 µM
CC(=O)Nc1ccc(-c2ccc(Cl)cc2)c(COc2ccc(-c3nc4cc(C(=O)O)ccc4n3C3CCCCC3)c(F)c2)c1 [Example 458, 2-[4-{2-(4-chlorophenyl)-5-(acetylamino)benzyloxy}-2-fluorophenyl]-1-cyclohexylbenzimidazole-5-carboxylic acid hydrochloride]	0.015 µM
CCCN(C(C)=O)c1ccc(-c2ccc(Cl)cc2)c(COc2ccc(-c3nc4cc(C(=O)O)ccc4n3C3CCCCC3)c(F)c2)c1 [Example 460, 2-[4-{2-(4-chlorophenyl)-5-(N-acetyl-N-propylamino)benzyloxy}-2-fluorophenyl]-1-cyclohexylbenzimidazole-5-carboxylic acid hydrochloride]	0.017 µM
CCN(c1ccc(-c2ccc(Cl)cc2)c(COc2ccc(-c3nc4cc(C(=O)O)ccc4n3C3CCCCC3)c(F)c2)c1)S(C)(=O)=O [Example 461, 2-[4-{2-(4-chlorophenyl)-5-[N-ethyl-N-(methylsulfonyl)amino]-benzyloxy}-2-fluorophenyl]-1-cyclohexylbenzimidazole-5-carboxylic acid hydrochloride]	0.021 µM
CCCN(c1ccc(-c2ccc(Cl)cc2)c(COc2ccc(-c3nc4cc(C(=O)O)ccc4n3C3CCCCC3)c(F)c2)c1)S(C)(=O)=O [Example 462, 2-[4-{2-(4-chlorophenyl)-5-[N-(methylsulfonyl)-N-propylamino]benzyloxy}-2-fluorophenyl]-1-cyclohexylbenzimidazole-5-carboxylic acid hydrochloride]	0.028 µM
CC(=O)N(C)c1ccc(-c2ccc(Cl)cc2)c(COc2ccc(-c3nc4cc(C(=O)O)ccc4n3C3CCCCC3)c(F)c2)c1 [Example 463, 2-[4-{2-(4-chlorophenyl)-5-(N-acetyl-N-methylamino)benzyloxy}-2-fluorophenyl]-1-cyclohexylbenzimidazole-5-carboxylic acid hydrochloride]	0.026 µM
CCS(=O)(=O)N(C)c1ccc(-c2ccc(Cl)cc2)c(COc2ccc(-c3nc4cc(C(=O)O)ccc4n3C3CCCCC3)c(F)c2)c1 [Example 464, 2-[4-{2-(4-chlorophenyl)-5-[N-(ethylsulfonyl)-N-methylamino]-benzyloxy}-2-fluorophenyl]-1-cyclohexylbenzimidazole-5-carboxylic acid hydrochloride]	0.03 µM
CCN(c1ccc(-c2ccc(Cl)cc2)c(COc2ccc(-c3nc4cc(C(=O)O)ccc4n3C3CCCCC3)c(F)c2)c1)S(=O)(=O)CC [Example 465, 2-[4-{2-(4-chlorophenyl)-5-[N-ethyl-N-(ethylsulfonyl)amino]-benzyloxy}-2-fluorophenyl]-1-cyclohexylbenzimidazole-5-carboxylic acid hydrochloride]	0.033 µM
CCC(=O)N(C)c1ccc(-c2ccc(Cl)cc2)c(COc2ccc(-c3nc4cc(C(=O)O)ccc4n3C3CCCCC3)c(F)c2)c1 [Example 466, 2-[4-{2-(4-chlorophenyl)-5-[N-(ethylcarbonyl)-N-methylamino]-benzyloxy}-2-fluorophenyl]-1-cyclohexylbenzimidazole-5-carboxylic acid hydrochloride]	0.023 µM
CCC(=O)N(CC)c1ccc(-c2ccc(Cl)cc2)c(COc2ccc(-c3nc4cc(C(=O)O)ccc4n3C3CCCCC3)c(F)c2)c1 [Example 467, 2-[4-{2-(4-chlorophenyl)-5-[N-ethyl-N-(ethylcarbonyl)amino]-benzyloxy}-2-fluorophenyl]-1-cyclohexylbenzimidazole-5-carboxylic acid hydrochloride]	0.032 µM
COc1ccc(-c2ccc(Cl)cc2)c(COc2ccc(-c3nc4cc(C(=O)O)ccc4n3C3CCCCC3)c(F)c2)c1 [Example 468, 2-[4-{2-(4-chlorophenyl)-5-methoxybenzyloxy}-2-fluorophenyl]-1-cyclohexylbenzimidazole-5-carboxylic acid]	0.028 µM
